Results as given in patent publication US7659279B2, “Quinazoline derivatives and their use in the treatment of cancer” (AstraZeneca AB, priority 2003, dated 2010).

What was measured:
[1] = tested on: KB cells (human naso-pharangeal carcinoma); test: Test (b) KB cell proliferation assay; type: cell-based; settings: 96 h, EGF 1 ng/ml, 4 days, MTT, read-out: IC50 (nM) Test (b): EGFR driven KB cell proliferation assay
Experimental: b) KB Cell Proliferation Assay
This assay measures the ability of a test compound to inhibit the EGF driven proliferation of KB cells (human naso-pharangeal carcinoma obtained from the American Type Culture Collection (ATCC)).
KB cells were cultured in Dulbecco's modified Eagle's medium (DMEM) containing 10% foetal calf serum, 2 mM glutamine and non-essential amino acids at 37° C. in a 7.5% CO2 air incubator. Cells were harvested from the stock flasks using Trypsin/ethylaminediaminetetraacetic acid (EDTA). Cell density was measured using a haemocytometer and viability was calculated using trypan blue solution before being seeded at a density of 1.25×10^3 cells per well of a 96 well plate in DMEM containing 2.5% charcoal stripped serum, 2 mM glutamine and non-essential amino acids at 37° C. in 7.5% CO2 and allowed to settle for 4 hours.
Following adhesion to the plate, the cells are treated with or without EGF (final concentration of 1 ng/ml) and with or without compound at a range of concentrations in dimethylsulfoxide (DMSO) (1% final) in a final volume of 200 μl before incubation for 4 days at 37° C. in 7.5% CO2. Following the incubation period, cell numbers were determined by addition of 50 μl of 3-(4,5-Dimethylthiazol-2-yl)-2,5-diphenyltetrazolium bromide (MTT) (stock 5 mg/ml) and incubated at 37° C. in a 7.5% CO2 air incubator for 2 hours. MTT solution was then removed from the cells by aspiration, which were then allowed to air dry and were dissolved upon the addition of 100 μl of DMSO.
Absorbance of this solubilised cells was read at 540 nm to quantify cell biomass. Inhibition of proliferation was expressed as an IC50 value. This was determined by calculation of the concentration of compound that was required to give 50% inhibition of proliferation. The range of proliferation was calculated from the positive (vehicle plus EGF) and negative (vehicle minus EGF) control values.

[2] = target: T1, EGFR tyrosine kinase (Homo sapiens, UniProt P00533); test: Test (a) protein tyrosine kinase phosphorylation assay, EGFR; type: biochemical; settings: recombinant intracellular fragment; ATP at Km concentration; read-out: IC50 (nM) Test (a): Inhibition of EGFR tyrosine kinase protein phosphorylation
T1 construct: Recombinant intracellular fragments of EGFR, erbB2 and erbB4; made in house; host or cells: baculovirus/Sf21 insect cells (cleared lysate used)
T1 sequence (P00533 669-1210 limits assumed): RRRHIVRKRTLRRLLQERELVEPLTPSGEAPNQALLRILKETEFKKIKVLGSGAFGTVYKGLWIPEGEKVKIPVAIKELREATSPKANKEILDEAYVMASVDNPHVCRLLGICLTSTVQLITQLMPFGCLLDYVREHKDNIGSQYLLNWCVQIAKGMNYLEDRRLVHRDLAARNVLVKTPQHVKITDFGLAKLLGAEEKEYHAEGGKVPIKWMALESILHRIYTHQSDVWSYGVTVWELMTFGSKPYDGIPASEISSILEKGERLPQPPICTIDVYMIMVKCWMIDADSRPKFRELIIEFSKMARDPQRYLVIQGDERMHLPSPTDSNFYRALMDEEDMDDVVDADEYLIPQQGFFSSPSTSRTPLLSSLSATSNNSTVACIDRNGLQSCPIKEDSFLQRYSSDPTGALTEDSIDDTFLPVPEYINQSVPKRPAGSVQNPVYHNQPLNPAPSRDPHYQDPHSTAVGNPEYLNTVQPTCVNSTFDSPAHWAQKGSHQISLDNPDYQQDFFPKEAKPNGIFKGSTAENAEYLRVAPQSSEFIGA
Experimental: (§1) a) Protein Tyrosine Kinase Phosphorylation Assays
This test measures the ability of a test compound to inhibit the phosphorylation of a tyrosine containing polypeptide substrate by EGFR tyrosine kinase enzyme.
(§2) Recombinant intracellular fragments of EGFR, erbB2 and erbB4 (accession numbers X00588, X03363 and L07868 respectively) were cloned and expressed in the baculovirus/Sf21 system. Lysates were prepared from these cells by treatment with ice-cold lysis buffer (20 mM N-2-hydroxyethylpiperizine-N′-2-ethanesulfonic acid (HEPES) pH7.5, 150 mM NaCl, 10% glycerol, 1% Triton X-100, 1.5 mM MgCl2, 1 mM ethylene glycol-bis(β-aminoethyl ether) N′,N′,N′,N′-tetraacetic acid (EGTA), plus protease inhibitors and then cleared by centrifugation.
(§3) Constitutive kinase activity of the recombinant protein was determined by its ability to phosphorylate a synthetic peptide (made up of a random co-polymer of Glutamic Acid, Alanine and Tyrosine in the ratio of 6:3:1). Specifically, Maxisorb™ 96-well immunoplates were coated with synthetic peptide ([…] of peptide in a 100 μl phosphate buffered saline (PBS) solution and incubated at 4° C. overnight). Plates were washed in PBS-T (phosphate buffered saline with 0.5% Tween 20) then in 50 mM HEPES pH 7.4 at room temperature to remove any excess unbound synthetic peptide. EGFR, ErbB2 or ErbB4 tyrosine kinase activity was assessed by incubation in peptide coated plates for 20 minutes at 22° C. in 100 mM HEPES pH 7.4, adenosine trisphosphate (ATP) at Km concentration for the respective enzyme, 10 mM MnCl2, 0.1 mM Na3VO4, 0.2 mM DL-dithiothreitol (DTT), 0.1% Triton X-100 with test compound in DMSO (final concentration of 2.5%). Reactions were terminated by the removal of the liquid components of the assay followed by washing of the plates with PBS-T.
(§4) The immobilised phospho-peptide product of the reaction was detected by immunological methods. Firstly, plates were incubated for 90 minutes at room temperature with anti-phosphotyrosine primary antibodies that were raised in the mouse (4G10 from Upstate Biotechnology). Following extensive washing, plates were treated with Horseradish Peroxidase ([…]) conjugated sheep anti-mouse secondary antibody (NXA931 from Amersham) for 60 minutes at room temperature. After further washing, HRP activity in each well of the plate was measured […] using 22′-Azino-di-[3-ethylbenzthiazoline sulfonate (6)] diammonium salt crystals (ABTS™ from Roche) as a substrate.
(§5) Quantification of colour development and thus enzyme activity was achieved by the measurement of absorbance at 405 nm on a Molecular Devices ThermoMax microplate reader. Kinase inhibition for a given compound was expressed as an IC50 value. This was determined by calculation of the concentration of compound that was required to give 50% inhibition of phosphorylation in this assay. The range of phosphorylation was calculated from the positive (vehicle plus ATP) and negative (vehicle minus ATP) control values.

[3] = target: T2, erbB2 tyrosine kinase (Homo sapiens, UniProt P04626); test: Test (a) protein tyrosine kinase phosphorylation assay, erbB2; type: biochemical; settings: recombinant intracellular fragment; ATP at Km concentration; read-out: IC50 (nM) Test (a): Inhibition of erbB2 tyrosine kinase protein phosphorylation
T2 construct: Recombinant intracellular fragments of EGFR, erbB2 and erbB4; made in house; host or cells: baculovirus/Sf21 insect cells (cleared lysate used)
T2 sequence (P04626 676-1255 limits assumed): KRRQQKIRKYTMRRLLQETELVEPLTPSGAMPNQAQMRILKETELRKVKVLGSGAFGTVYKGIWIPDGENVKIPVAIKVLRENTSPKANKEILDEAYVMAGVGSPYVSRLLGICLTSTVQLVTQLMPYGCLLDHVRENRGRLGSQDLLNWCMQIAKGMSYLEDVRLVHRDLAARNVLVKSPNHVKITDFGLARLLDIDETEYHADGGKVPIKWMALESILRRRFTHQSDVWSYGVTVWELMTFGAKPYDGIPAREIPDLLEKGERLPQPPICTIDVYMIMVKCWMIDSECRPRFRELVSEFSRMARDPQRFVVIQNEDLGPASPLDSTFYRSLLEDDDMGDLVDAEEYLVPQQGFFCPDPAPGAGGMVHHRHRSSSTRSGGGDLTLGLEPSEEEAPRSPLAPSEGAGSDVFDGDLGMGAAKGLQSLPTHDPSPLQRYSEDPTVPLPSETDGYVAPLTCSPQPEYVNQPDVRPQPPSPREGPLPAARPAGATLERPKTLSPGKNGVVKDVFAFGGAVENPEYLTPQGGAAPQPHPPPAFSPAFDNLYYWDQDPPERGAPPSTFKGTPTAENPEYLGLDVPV
Experimental: as §1, §2, §3, §4, §5

| Compound | IC50 [1] | IC50 [2] | IC50 [3] |
| --- | --- | --- | --- |
| COc1cc(OC[C@@H]2CCCN2C(=O)CN(C)C)c2c(Nc3ccc(F)c(Cl)c3)ncnc2c1 [Example 2, N-(3-Chloro-4-fluorophenyl)-5-({(2S)-1-[(dimethylamino)acetyl]pyrrolidin-2-yl}methoxy)-7-methoxyquinazolin-4-amine] | 141 nM | 70 nM | 1850 nM |
| COc1cc(OC[C@H]2CCCN2C(=O)CO)c2c(Nc3ccc(F)c(Cl)c3)ncnc2c1 [Example 3, 2-{(2R)-2-[({4-[3-Chloro-4-fluoroanilino]-7-methoxyquinazolin-5-yl}oxy)methyl]pyrrolidin-1-yl}-2-oxoethanol] | 91 nM | 9 nM | 275 nM |
| COc1cc(OC[C@H]2CCCN2C(=O)CN(C)C)c2c(Nc3ccc(F)c(Cl)c3)ncnc2c1 [Example 4] | 138 nM | 39 nM | 252 nM |
| COc1cc(OC[C@@H]2CCCN2C(=O)CN2CCCC2)c2c(Nc3ccc(F)c(Cl)c3)ncnc2c1 [Example 6, N-(3-Chloro-4-fluorophenyl)-7-methoxy-5-{[(2S)-1-(pyrrolidin-1-ylacetyl)pyrrolidin-2-yl]methoxy}quinazolin-4-amine] | 130 nM | 57 nM | 1630 nM |
| COc1cc(OC[C@H]2CCCN2C(C)=O)c2c(Nc3ccc(F)c(Cl)c3)ncnc2c1 [Example 13, 5-{[(2R)-1-Acetylpyrrolidin-2-yl]methoxy}-N-(3-chloro-4-fluorophenyl)-7-methoxyquinazolin-4-amine] | 28 nM | 1 nM | 358 nM |
| O=C(CO)N1CCC[C@@H]1COc1cc(OCCO)cc2ncnc(Nc3ccc(F)c(Cl)c3)c12 [Example 16, 2-[(2R)-2-({[4-[3-Chloro-4-fluoroanilino]-7-(2-hydroxyethoxy)quinazolin-5-yl]oxy}methyl)pyrrolidin-1-yl]-2-oxoethanol] | 128 nM | 1 nM | 52 nM |
| CCOCCOc1cc(OC[C@H]2CCCN2C(=O)CO)c2c(Nc3ccc(F)c(Cl)c3)ncnc2c1 [Example 18, 2-[(2R)-2-({[4-[3-Chloro-4-fluoroanilino]-7-(2-ethoxyethoxy)quinazolin-5-yl]oxy}methyl)pyrrolidin-1-yl]-2-oxoethanol] | 99 nM | 8 nM | 85 nM |
| COc1cc(OC[C@H]2C[C@H](O)CN2C(C)=O)c2c(Nc3ccc(F)c(Cl)c3)ncnc2c1 [Example 22, (3S,5R)-1-Acetyl-5-[({4-[3-chloro-4-fluoroanilino]-7-methoxyquinazolin-5-yl}oxy)methyl]pyrrolidin-3-ol] | 75 nM | 1 nM | 61 nM |
| COCC(=O)N1C[C@@H](O)C[C@@H]1COc1cc(OC)cc2ncnc(Nc3ccc(F)c(Cl)c3)c12 [Example 23, (3S,5R)-5-[({4-[3-Chloro-4-fluoroanilino]-7-methoxyquinazolin-5-yl}oxy)methyl]-1-(methoxyacetyl)pyrrolidin-3-ol] | 288 nM | 56 nM | 1730 nM |
| COc1cc(OC[C@@H]2C[C@@H](O)CN2C(=O)CO)c2c(Nc3ccc(F)c(Cl)c3)ncnc2c1 [Example 25, (3R,5S)-5-[({4-[3-Chloro-4-fluoroanilino]-7-methoxyquinazolin-5-yl}oxy)methyl]1-glycoloylpyrrolidin-3-ol] | 156 nM | 32 nM | 1910 nM |
| COc1cc(OC[C@@H]2C[C@H](O)CN2C(=O)CN(C)C)c2c(Nc3ccc(F)c(Cl)c3)ncnc2c1 [Example 31, (3S,5S)-5-[({4-[3-Chloro-4-fluoroanilino]-7-methoxyquinazolin-5-yl}oxy)methyl]-1-(N,N-dimethylglycyl)pyrrolidin-3-ol] | 112 nM | 42 nM | 532 nM |
| COc1cc(OC[C@H]2C[C@@H](O)CN2C(=O)CO)c2c(Nc3ccc(F)c(Cl)c3)ncnc2c1 [Example 32, (3R,5R)-5-[({4-[3-Chloro-4-fluoroanilino]-7-methoxyquinazolin-5-yl}oxy)methyl]-1-glycoloylpyrrolidin-3-ol] | 118 nM | 18 nM | 215 nM |
